# Assay results reported in patent publication US10517889B2, “Modulators of SMAD7 expression” (Ionis Pharmaceuticals, Inc., priority 2017, dated 2019).
# Strand notation (5' to 3'): a small letter for the sugar, then the base; units joined by * are phosphorothioate-linked, units joined directly phosphodiester-linked; [ ] holds rarer units or linkages, { } end groups; capitals alone tell only the bases. k = constrained ethyl (cEt); [5mC] = 5-methylcytosine; d = 2'-deoxy (DNA)
# Tested on: human SMAD7 mRNA
# Experiment: Antisense inhibition of human SMAD7 mRNA expression in Hep3B cells by 3-10-3 cEt gapmers, 10,000 nM, electroporation (Example 2)
# Assay type: cell-based
# Details: Hep3B cells, 10,000 nM antisense oligonucleotide, electroporation, approximately 24 hours, RT-PCR primer probe set RTS5062, relative to untreated control cells
# In short: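 SMAD7 mRNA was measured by real-time PCR (RTS5062) with RiboGreen total-RNA normalization, about 24 h after 10,000 nM gapmer was delivered by electroporation into Hep3B cells at 20,000 per well. Gapmers were 16-mer 3-10-3 cEt, fully phosphorothioate; values are % inhibition versus untreated controls.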
row,Substance,% Inhibition
1,800072 (antisense kG*kA*k[5mC]*dT*dT*dG*dG*dG*dA*d[5mC]*d[5mC]*dA*dT*kA*kA*kA) [compound 800072],0%
2,799910 (antisense k[5mC]*k[5mC]*kA*dA*d[5mC]*dT*d[5mC]*d[5mC]*dA*dT*dT*d[5mC]*dA*kT*kA*kA) [compound 799910],36%

# Same assay, conditions: Hep3B cells, electroporation with 10,000 nM antisense oligonucleotide, approximately 24 hours, RTS5062, percent inhibition of SMAD7 mRNA relative to untreated control cells
row,Substance,% Inhibition
1,799802 (k[5mC]*k[5mC]*kA*dG*dA*d[5mC]*dA*dG*dG*d[5mC]*d[5mC]*dA*dG*kG*kG*k[5mC]; antisense) [compound 799802],20%
2,799702 (antisense k[5mC]*kA*kT*d[5mC]*dA*d[5mC]*d[5mC]*dA*d[5mC]*dT*d[5mC]*dT*dA*k[5mC]*kA*kG) [compound 799702],43%
3,799742 (antisense kA*kT*kA*dT*dT*dT*d[5mC]*d[5mC]*dT*dG*dT*dT*dA*kA*k[5mC]*kT) [compound 799742],23%

# Same assay, conditions: Hep3B cells, electroporation with 10,000 nM antisense oligonucleotide, approximately 24 hours, SMAD7 mRNA by RT-PCR (RTS5062), relative to untreated control cells
row,Substance,% Inhibition
1,798828 (kA*kT*k[5mC]*d[5mC]*dA*dG*dA*dG*dA*dG*dG*dG*d[5mC]*kT*k[5mC]*k[5mC]; antisense) [compound 798828],18%
2,798670 (kG*kG*k[5mC]*dG*dG*d[5mC]*dG*dG*d[5mC]*d[5mC]*d[5mC]*dG*dA*kG*kG*kG; antisense) [compound 798670],44%
3,799901 (antisense kA*kG*kT*d[5mC]*dA*dA*dG*dT*d[5mC]*dT*d[5mC]*dT*dT*kA*k[5mC]*k[5mC]) [compound 799901],31%
4,830139 (antisense kT*kG*kG*dA*dG*dT*dT*dG*d[5mC]*dA*dT*dG*d[5mC]*k[5mC]*kT*kT) [compound 830139],45%
5,800003 (kA*kG*kA*dA*d[5mC]*dA*d[5mC]*dG*dG*dG*d[5mC]*dA*d[5mC]*kG*k[5mC]*kG; antisense) [compound 800003],24%
6,800088 (antisense kA*kA*kT*dG*dA*dG*dG*dG*dT*dG*dG*d[5mC]*dT*kT*kG*kG) [compound 800088],54%
7,798850 (k[5mC]*kA*kG*d[5mC]*dT*dG*dG*dA*dT*dG*d[5mC]*d[5mC]*dG*k[5mC]*kA*kG; antisense) [compound 798850],12%
8,799452 (antisense kA*kA*kA*dA*dG*dA*dA*d[5mC]*dA*d[5mC]*dA*dG*d[5mC]*kA*k[5mC]*kT) [compound 799452],44%
9,798916 (k[5mC]*kG*k[5mC]*dT*d[5mC]*dT*dG*dT*d[5mC]*d[5mC]*d[5mC]*d[5mC]*dT*k[5mC]*k[5mC]*kG; antisense) [compound 798916],13%
10,798811 (k[5mC]*kA*kG*dA*dA*dG*dA*dA*dG*dT*dT*dG*dG*kG*kA*kA; antisense) [compound 798811],1%

# Same assay, conditions: Hep3B cells, electroporation with 10,000 nM antisense oligonucleotide, approximately 24 hours, primer probe set RTS5062, relative to untreated control cells
Substance,% inhibition of SMAD7 mRNA expression,% Inhibition
799442 (antisense kG*kA*kT*dT*dT*dT*dA*dA*dA*dA*dG*dA*dG*kG*k[5mC]*k[5mC]) [compound 799442],0%,–
799146 (antisense kT*kA*k[5mC]*d[5mC]*dT*dT*dG*dG*dG*dT*dT*dA*dT*kG*kA*k[5mC]) [compound 799146],0%,–
799115 (antisense kA*k[5mC]*kA*d[5mC]*dA*dG*dG*dA*dT*dG*dG*dG*dA*kG*k[5mC]*kA) [compound 799115],–,40%
799456 (antisense kT*k[5mC]*k[5mC]*dT*dA*dA*dG*dT*dA*d[5mC]*dT*dG*dT*kT*kA*kA) [compound 799456],0%,–
799135 (antisense kG*kG*kG*dA*d[5mC]*dT*dG*d[5mC]*dT*dA*dA*dG*d[5mC]*kA*kT*kG) [compound 799135],–,38%
799034 (k[5mC]*kT*kT*dG*d[5mC]*d[5mC]*d[5mC]*dA*dG*dG*dT*dA*d[5mC]*kT*kG*k[5mC]; antisense) [compound 799034],–,12%
798654 (k[5mC]*k[5mC]*k[5mC]*dT*dG*d[5mC]*dG*d[5mC]*dG*dG*d[5mC]*dT*d[5mC]*kT*k[5mC]*k[5mC]; antisense) [compound 798654],23%,–
799064 (antisense kT*kA*kA*dT*dT*dG*dG*dT*dT*d[5mC]*dT*dG*dG*kT*kT*k[5mC]) [compound 799064],47%,–
799087 (antisense k[5mC]*k[5mC]*k[5mC]*d[5mC]*dG*dG*d[5mC]*dA*dG*d[5mC]*d[5mC]*d[5mC]*dT*kT*kG*kG) [compound 799087],69%,–
799093 (antisense kG*kT*k[5mC]*dA*d[5mC]*d[5mC]*dA*dG*dG*dG*d[5mC]*dA*dG*kG*k[5mC]*kA) [compound 799093],–,47%
799326 (kA*k[5mC]*kA*d[5mC]*dT*d[5mC]*dT*d[5mC]*d[5mC]*d[5mC]*dA*dG*dG*kA*kG*kG; antisense) [compound 799326],31%,–
799019 (kA*k[5mC]*kT*dG*d[5mC]*dA*dA*dA*d[5mC]*d[5mC]*dT*d[5mC]*dT*k[5mC]*kT*kG; antisense) [compound 799019],–,36%
798937 (antisense kG*kT*kT*dT*dG*d[5mC]*dA*dT*dG*dA*dA*dA*dA*kG*k[5mC]*kA) [compound 798937],–,35%
799063 (antisense kT*kG*kG*dT*dT*d[5mC]*dT*dG*dG*dT*dT*d[5mC]*dG*kG*k[5mC]*k[5mC]) [compound 799063],9%,–
799343 (kA*k[5mC]*kT*dA*dA*dT*d[5mC]*dT*dA*d[5mC]*dA*dG*dA*k[5mC]*kT*kT; antisense) [compound 799343],53%,–
799419 (antisense kA*kA*kA*dA*dA*dT*dT*d[5mC]*dA*dA*d[5mC]*d[5mC]*dT*kA*kA*kG) [compound 799419],0%,–

# Same assay, conditions: Hep3B cells, electroporation, 10,000 nM antisense oligonucleotide, approximately 24 hours, RTS5062, relative to untreated control cells
row,Substance,% inhibition of SMAD7 mRNA expression
1,799719 (antisense k[5mC]*k[5mC]*kT*dT*dT*d[5mC]*dT*dA*d[5mC]*dT*dA*dG*dA*kA*kA*kA) [compound 799719],19%
2,799576 (kG*kA*kA*dA*dG*dG*dA*d[5mC]*d[5mC]*d[5mC]*dT*dT*dT*k[5mC]*kA*kA; antisense) [compound 799576],25%
3,799834 (antisense kG*kT*kG*dG*dT*dA*dT*dA*dG*d[5mC]*dA*dT*dG*k[5mC]*kA*kT) [compound 799834],0%
4,799560 (kG*kG*k[5mC]*dA*d[5mC]*dA*dG*d[5mC]*dT*dT*d[5mC]*dT*dA*kT*kT*k[5mC]; antisense) [compound 799560],18%
5,799656 (antisense k[5mC]*kT*kA*dA*d[5mC]*dT*dG*dG*dG*d[5mC]*dA*dG*dG*kT*k[5mC]*k[5mC]) [compound 799656],60%
6,799676 (antisense kG*kA*kA*dA*d[5mC]*d[5mC]*dA*dT*dG*dA*dG*d[5mC]*dT*kG*kT*kT) [compound 799676],64%
7,799777 (kA*kG*kT*d[5mC]*dA*dG*d[5mC]*d[5mC]*dA*dG*dA*dA*dG*kG*kA*k[5mC]; antisense) [compound 799777],34%
8,799733 (antisense kG*kT*kT*dT*dA*dG*dG*dT*dA*dG*dA*dG*dT*kG*kG*k[5mC]) [compound 799733],27%

# Same assay, conditions: SMAD7 mRNA, Hep3B cells, 10,000 nM antisense oligonucleotide, electroporation, approximately 24 hours, primer probe set RTS5062, relative to untreated control cells
row,Substance,% Inhibition
1,772592 (k[5mC]*kA*k[5mC]*d[5mC]*dA*dG*dT*dG*dT*dG*dA*d[5mC]*d[5mC]*kG*kA*kT; antisense) [compound 772592],24%
2,772929 (k[5mC]*kG*kG*dA*dA*dG*dT*d[5mC]*dT*dT*dG*dT*dA*kT*kT*kT; antisense) [compound 772929],37%
3,829786 (antisense kG*kA*kA*dT*dG*d[5mC]*d[5mC]*dT*dG*dA*dG*dA*dT*k[5mC]*k[5mC]*kG) [compound 829786],56%
4,772713 (kA*kT*kA*dA*d[5mC]*dA*d[5mC]*d[5mC]*d[5mC]*dA*dT*dA*dG*kA*kA*kA; antisense) [compound 772713],24%
5,772604 (kA*kT*kT*d[5mC]*d[5mC]*d[5mC]*d[5mC]*dT*dG*dA*dG*dG*dT*kA*kG*kA; antisense) [compound 772604],48%
6,790697 (kA*kT*kT*d[5mC]*dA*dG*dG*dG*dT*dG*dT*d[5mC]*dA*kG*k[5mC]*k[5mC]; antisense) [compound 790697],59%
7,829757 (antisense k[5mC]*k[5mC]*kG*dG*d[5mC]*d[5mC]*d[5mC]*d[5mC]*dA*dT*dG*d[5mC]*dG*k[5mC]*kT*k[5mC]) [compound 829757],15%

# Same assay, conditions: SMAD7 mRNA, Hep3B cells, electroporation with 10,000 nM antisense oligonucleotide, approximately 24 hours, primer probe set RTS5062, relative to untreated control cells
row,Substance,% Inhibition
1,829905 (antisense k[5mC]*kG*kG*d[5mC]*dT*dG*dT*dT*dG*dA*dA*dG*dA*kT*kG*kA) [compound 829905],20%
2,829991 (kA*kG*kG*dG*d[5mC]*d[5mC]*dG*d[5mC]*dG*dA*dG*dG*d[5mC]*kG*kG*kT; antisense) [compound 829991],26%
3,829842 (k[5mC]*k[5mC]*kG*dA*dG*dG*d[5mC]*dA*dA*dA*dA*dG*d[5mC]*k[5mC]*kA*kT; antisense) [compound 829842],26%
